Laboratory results as given in ChEMBL document CHEMBL4706515, “Discovery of new [1,2,4] Triazolo[1,5-a]Pyrimidine derivatives that Kill gastric cancer cells via the mitochondria pathway” (Eur J Med Chem, 2020).
Active and inactive are the calls of the source. No cut-off for these calls is given here.

Legend:
[1] = tested on: MGC-803; experiment: Induction of apoptosis in human MGC-803 cells assessed as increase in ROS production preincubated for 1 hr with NAC followed by compound addition at 2.5 uM measured after 24 hrs by DCHF-DA staining based Flowcytometry method; type: functional, cell-based
[2] = tested on: MKN-45; experiment: Antiproliferative activity against human MKN-45 cells assessed as inhibition of cell growth at measured after 72 hrs by SRB assay; type: functional
[3] = Selectivity index, ratio of GI50 for human MGC803 to GI50 for human GES-1 cells
[4] = tested on: MGC-803; experiment: Induction of morphological changes in human MGC-803 cells assessed as cell shrinkage at 10 uM incubated for 1 hrs by bright field microscopic analysis; type: functional, cell-based
[5] = tested on: MGC-803; experiment: Induction of apoptosis in human MGC-803 cells assessed as early apoptotic cells at 10 uM measure after 24 hrs by Annexin-PI staining based Flowcytometry method (reference value: 9.8%); type: functional
[6] = tested on: MGC-803; experiment: Induction of apoptosis in human MGC-803 cells assessed as accumulation of cleaved caspase 3 protein at 0.625 to 10 uM measured after 24 hrs by western blot assay; type: functional, cell-based; details: dose 0.625-10 µM
[7] = tested on: MGC-803; experiment: Induction of apoptosis in human MGC-803 cells assessed as necrotic cells at 1.25 uM measure after 24 hrs by Annexin-PI staining based Flowcytometry method (reference value: 3.13%); type: functional
[8] = tested on: MGC-803; experiment: Induction of apoptosis in human MGC-803 cells assessed as early apoptotic cells at 5 uM measure after 24 hrs by Annexin-PI staining based Flowcytometry method (reference value: 9.8%); type: functional
[9] = tested on: HGC-27; experiment: Antiproliferative activity against human HGC-27 cells assessed as inhibition of cell growth at measured after 72 hrs by SRB assay; type: functional
[10] = tested on: SGC-7901; experiment: Induction of apoptosis in human SGC-7901 cells assessed as necrotic cells at 0.625 uM measure after 24 hrs by Annexin-PI staining based Flowcytometry method (reference value: 1.16%); type: functional
[11] = tested on: SGC-7901; experiment: Induction of apoptosis in human SGC-7901 cells assessed as necrotic cells at 2.5 uM measure after 24 hrs by Annexin-PI staining based Flowcytometry method (reference value: 1.16%); type: functional
[12] = tested on: SGC-7901; experiment: Induction of apoptosis in human SGC-7901 cells assessed as early apoptotic cells at 2.5 uM measure after 24 hrs by Annexin-PI staining based Flowcytometry method (reference value: 2.68%); type: functional
[13] = tested on: MGC-803; experiment: Induction of apoptosis in human MGC-803 cells assessed as increase in ROS production at 10 uM measured after 24 hrs by DCHF-DA staining based Flowcytometry method; type: functional, cell-based
[14] = tested on: MGC-803; experiment: Induction of apoptosis in human MGC-803 cells assessed as increase in ROS production at 5 uM measured after 24 hrs by DCHF-DA staining based Flowcytometry method; type: functional, cell-based
[15] = tested on: SGC-7901; experiment: Induction of apoptosis in human SGC-7901 cells assessed as late apoptotic cells at 10 uM measure after 24 hrs by Annexin-PI staining based Flowcytometry method (reference value: 1.29%); type: functional
[16] = tested on: SGC-7901; experiment: Inhibition of cell proliferation in human SGC-7901 cells at 10 uM measured after 72 hrs by SRB assay; type: functional, cell-based
[17] = tested on: SGC-7901; experiment: Induction of apoptosis in human SGC-7901 cells assessed as early apoptotic cells at 10 uM measure after 24 hrs by Annexin-PI staining based Flowcytometry method (reference value: 2.68%); type: functional
[18] = tested on: MGC-803; experiment: Inhibition of cell proliferation in human MGC-803 cells at 5 uM measured by SRB assay; type: functional, cell-based; details: time 72.0 hrs
[19] = tested on: MGC-803; experiment: Antiproliferative activity in human MGC-803 cells assessed as inhibition of cell viability preincubated with 3-methyladenine followed by compound addition measured after 24 hrs by SRB staining method; type: functional, cell-based
[20] = tested on: MGC-803; experiment: Antiproliferative activity in human MGC-803 cells assessed as inhibition of cell viability preincubated for 1 hr with NAC followed by compound addition at 5 uM measured after 72 hrs by SRB staining method; type: functional, cell-based
[21] = tested on: SGC-7901; experiment: Induction of apoptosis in human SGC-7901 cells assessed as necrotic cells at 10 uM measure after 24 hrs by Annexin-PI staining based Flowcytometry method (reference value: 1.16%); type: functional
[22] = tested on: MGC-803; experiment: Induction of apoptosis in human MGC-803 cells assessed as increase in accumulation of cleaved PARP measured after 24 hrs by western blot assay; type: functional, cell-based
[23] = tested on: SGC-7901; experiment: Induction of apoptosis in human SGC-7901 cells assessed as necrotic cells at 5 uM measure after 24 hrs by Annexin-PI staining based Flowcytometry method (reference value: 1.16%); type: functional
[24] = tested on: MGC-803; experiment: Induction of apoptosis in human MGC-803 cells assessed as viable cells at 10 uM measure after 24 hrs by Annexin-PI staining based Flowcytometry method (reference value: 80%); type: functional; details: read-out: Activity
[25] = tested on: MGC-803; experiment: Antiproliferative activity against human MGC-803 cells assessed as inhibition of cell growth incubated with compound for 1 to 24 hrs and measured 72 hrs after replacement of media by SRB assay; type: functional, cell-based; details: time 1-24 hrs
[26] = tested on: MGC-803; experiment: Induction of apoptosis in human MGC-803 cells assessed as viable cells at 5 uM measure after 24 hrs by Annexin-PI staining based Flowcytometry method (reference value: 80%); type: functional; details: read-out: Activity
[27] = tested on: BGC-823; experiment: Antiproliferative activity against human BGC-823 cells assessed as inhibition of cell growth at measured after 72 hrs by SRB assay; type: functional
[28] = tested on: SGC-7901; experiment: Induction of apoptosis in human SGC-7901 cells assessed as late apoptotic cells at 2.5 uM measure after 24 hrs by Annexin-PI staining based Flowcytometry method (reference value: 1.29%); type: functional
[29] = tested on: MGC-803; experiment: Induction of apoptosis in human MGC-803 cells assessed as increase in ROS production preincubated for 1 hr with NAC followed by compound addition at 5 uM measured after 24 hrs by DCHF-DA staining based Flowcytometry method; type: functional, cell-based
[30] = tested on: MGC-803; experiment: Cell cycle arrest in human MGC-803 cells assessed as accumulation of cells in G2/M phase at 10 uM measured after 24 hrs by PI staining based flow cytometry; type: functional
[31] = tested on: SGC-7901; experiment: Inhibition of cell proliferation in human SGC-7901 cells at 2.5 uM measured after 72 hrs by SRB assay; type: functional, cell-based
[32] = tested on: MGC-803; experiment: Induction of apoptosis in human MGC-803 cells assessed as accumulation of cleaved PARP protein at 0.625 to 10 uM measured after 24 hrs by western blot assay; type: functional, cell-based; details: dose 0.625-10 µM
[33] = tested on: MGC-803; experiment: Induction of apoptosis in human MGC-803 cells assessed as decrease in accumulation of cleaved PARP preincubated with Chloroquine measured after 24 hrs by western blot assay; type: functional, cell-based
[34] = tested on: SGC-7901; experiment: Induction of apoptosis in human SGC-7901 cells assessed as viable cells at 1.25 uM measure after 24 hrs by Annexin-PI staining based Flowcytometry method (reference value: 94.9%); type: functional; details: read-out: Activity
[35] = tested on: MGC-803; experiment: Induction of apoptosis in human MGC-803 cells assessed as early apoptotic cells at 2.5 uM measure after 24 hrs by Annexin-PI staining based Flowcytometry method (reference value: 9.8%); type: functional
[36] = tested on: SGC-7901; experiment: Induction of apoptosis in human SGC-7901 cells assessed as late apoptotic cells at 5 uM measure after 24 hrs by Annexin-PI staining based Flowcytometry method (reference value: 1.29%); type: functional

GI50 [2]: 640 nM | GI50 [27]: 640 nM
SMILES: Cc1cc(Nc2ccc(C(=O)/C=C/c3cccc(Br)n3)cc2)n2nc(SCc3nc4ccccc4[nH]3)nc2n1
Activity [1]: inactive | RatioGI50 [3]: 6.9 | Activity [4]: Active | Activity [5]: 9.48% | Activity [6]: Active | Activity [7]: 2.25% | Activity [8]: 6.25% | GI50 [9]: 640 nM | Activity [10]: 1.96% | Activity [11]: 1.15% | Activity [12]: 5% | Activity [13]: Active | Activity [14]: Active | Activity [15]: 62.8% | inhibition [16]: Active | Activity [17]: 8.54% | inhibition [18]: Active | inhibition [19]: Active | inhibition [20]: inactive | Activity [21]: 4.79% | Activity [22]: Active | Activity [23]: 0.586% | viability at 10 µM [24]: 45.3% | inhibition [25]: Active | viability at 5 µM [26]: 73.8% | Activity [28]: 5.53% | Activity [29]: inactive | Activity [30]: Active | inhibition [31]: inactive | Activity [32]: Active | Activity [33]: inactive | viability at 1.25 µM [34]: 94.8% | Activity [35]: 7.11% | Activity [36]: 29.8%
